Experimental findings from PubChem BioAssay AID190 (DTP/NCI, 2004) are described below.

Molecules are shown by their SMILES. Several values for one entry are separate records, joined by “and”; a condition that tells them apart may be missing. Identical values can stand only once. Inconclusive results and toxic doses are left out.

For this assay, the system named is AKR/Lw mice, AKR lymphoma ip, median survival T/C. Put plainly: NCI In Vivo Anticancer Drug Screen. Data for tumor model Lymphoma AKR (Transplanted) (intraperitoneal) in AKR/Lw mice. As to conditions: endpoint: median survival time, higher = longer survival. Here is the method: The antitumor activity of compounds was measured in mice bearing transplantable tumors. Survival or tumor size were measured and the results are expressed as the measurement made in the treated group (T) divided by the measurement made in the vehicle treated control group (C). The tumor model used in this assay is Lymphoma AKR (Transplanted) (intraperitoneal) in AKR/Lw mice

Setting [1] is: dose: 100.0 mg/kg/injection, schedule: Q01DX001 (ip), vehicle: saline.
[2] abbreviates: dose: 200.0 mg/kg/injection, schedule: Q01DX001 (ip), vehicle: saline.
Where [3] appears, read: dose: 400.0 mg/kg/injection, schedule: Q01DX001 (ip), vehicle: saline.
Setting [4] is: dose: 200.0 mg/kg/injection, schedule: Q01DX001 (ip), vehicle: Klucel (hydroxypropylcellulose) (HPC).
Setting [5] is: dose: 400.0 mg/kg/injection, schedule: Q01DX001 (ip), vehicle: Klucel (hydroxypropylcellulose) (HPC).
Setting [6] is: dose: 100.0 mg/kg/injection, schedule: Q01DX001 (ip), vehicle: Klucel (hydroxypropylcellulose) (HPC).
[7] abbreviates: dose: 100.0 mg/kg/injection, schedule: Q04DX003 (ip), vehicle: Klucel (hydroxypropylcellulose) (HPC).

As to `O=NN(CCCl)C(=O)NC1CC2CCC1C2` (stereo unspecified), the T/C was 115 % of control (dose: 0.31 mg/kg/injection, schedule: Q04DX004 (ip), vehicle: Klucel (hydroxypropylcellulose) (HPC)); 93 % of control (dose: 0.62 mg/kg/injection, schedule: Q04DX004 (ip), vehicle: Klucel (hydroxypropylcellulose) (HPC)); 102 % of control (dose: 0.75 mg/kg/injection, schedule: Q04DX008 (ip), vehicle: Klucel (hydroxypropylcellulose) (HPC)); 112 % of control (dose: 1.25 mg/kg/injection, schedule: Q04DX004 (ip), vehicle: Klucel (hydroxypropylcellulose) (HPC)); 108 % of control (dose: 1.5 mg/kg/injection, schedule: Q04DX008 (ip), vehicle: Klucel (hydroxypropylcellulose) (HPC)); 112 % of control (dose: 2.5 mg/kg/injection, schedule: Q04DX004 (ip), vehicle: Klucel (hydroxypropylcellulose) (HPC)). Besides, the T/C reads like this: (dose: 5.0 mg/kg/injection, schedule: Q04DX004 (ip), vehicle: Klucel (hydroxypropylcellulose) (HPC)) 120 % of control; (dose: 5.0 mg/kg/injection, schedule: Q04DX008 (ip), vehicle: Klucel (hydroxypropylcellulose) (HPC)) 150 % of control; (dose: 10.0 mg/kg/injection, schedule: Q04DX004 (ip), vehicle: Klucel (hydroxypropylcellulose) (HPC)) 114 % of control; (dose: 20.0 mg/kg/injection, schedule: Q04DX004 (ip), vehicle: Klucel (hydroxypropylcellulose) (HPC)) 114 % of control.

As for `CC(=O)N(C(C)=O)c1ccc(C)cc1`, the T/C by setting is: under setting [1], 93 % of control; under setting [2], 104 % of control; under setting [3], 104 % of control.

Take `C/C=C(/Cl)c1c(C)cc(C)c(CC(=O)O)c1C`: the T/C is 106 % of control under setting [4] and 109 % of control under setting [5].

Consider `CCOC(=O)C1OC12CCCCC2` (stereo unspecified), for which the T/C reads like this: under setting [6], 96 % of control; under setting [4], 92 % of control; under setting [5], 100 % of control.

For the molecule `CCOc1ccc2nc(N)sc2c1`, the T/C is 89 % of control under setting [6] and 92 % of control under setting [4].

`S=C1NC(c2ccccc2)NC(c2ccccc2)S1` (stereo unspecified): the T/C under setting [6] was 92 % of control, the T/C under setting [4] was 92 % of control and the T/C under setting [5] is 96 % of control.

On to `Cc1cnc2c(N)[nH]nc2n1`, for which the T/C (dose: 25.0 mg/kg/injection, schedule: Q01DX001 (ip), vehicle: Klucel (hydroxypropylcellulose) (HPC)) was 100 % of control; the T/C (dose: 50.0 mg/kg/injection, schedule: Q01DX001 (ip), vehicle: Klucel (hydroxypropylcellulose) (HPC)) is 97 % of control; the T/C under setting [6] was 106 % of control.

As for `Clc1nnc(Nc2ccccc2)c2ccccc12`, the T/C was 86 % of control (dose: 25.0 mg/kg/injection, schedule: Q04DX003 (ip), vehicle: Klucel (hydroxypropylcellulose) (HPC)); 98 % of control (dose: 50.0 mg/kg/injection, schedule: Q04DX003 (ip), vehicle: Klucel (hydroxypropylcellulose) (HPC)); 92 % of control under setting [6]; 92 % of control under setting [7]; 100 % of control (dose: 100.0 mg/kg/injection, schedule: Q04DX003 (ip), vehicle: saline); 96 % of control under setting [4]. In addition, the T/C under setting [5] was 96 % of control.

For `CCCCCCCCC(=O)N1CC(C)OC(C)C1` (stereo unspecified), the T/C reads like this: under setting [1], 100 % of control; under setting [2], 94 % of control; under setting [3], 100 % of control.

For `CCCCCCCCCCCCCCCC(=O)N(CCC#N)CCCCCCCCCN(CCC#N)C(=O)CCCCCCCCCCCCCCC`, the T/C was 116 % of control under setting [1] and 94 % of control under setting [2].

Consider `ClC1=C(Cl)C2(Cl)C(COc3ccc(Cl)cc3)CC1(Cl)C2(Cl)Cl` (stereo unspecified), for which the T/C reads like this: under setting [1], 94 % of control; under setting [2], 88 % of control; under setting [3], 91 % of control.

For the molecule `O=C(Cc1ccc2cc3c(cc2c1)OCO3)NCCc1ccc2c(c1)OCO2`, the T/C is, setting by setting: under setting [6], 92 % of control; under setting [7], 100 % of control; under setting [4], 94 % of control; (dose: 200.0 mg/kg/injection, schedule: Q04DX003 (ip), vehicle: Klucel (hydroxypropylcellulose) (HPC)) 96 % of control; under setting [5], 100 % of control; (dose: 400.0 mg/kg/injection, schedule: Q04DX003 (ip), vehicle: Klucel (hydroxypropylcellulose) (HPC)) 92 % of control.

As to `COc1cccc2c1C(=O)c1c(O)c3c(c(O)c1C2=O)C[C@@](O)(C(C)=O)C[C@@H]3OC1CC(N)C(O)C(C)O1` (stereo partly specified), the T/C reads like this: (dose: 0.02 mg/kg/injection, schedule: Q01DX015 (ip), vehicle: saline) 100 % of control; (dose: 0.05 mg/kg/injection, schedule: Q01DX010 (ip), vehicle: saline) 112 % of control; (dose: 0.05 mg/kg/injection, schedule: Q01DX015 (ip), vehicle: saline) 115 % of control; (dose: 0.1 mg/kg/injection, schedule: Q01DX010 (ip), vehicle: saline) 119 % of control; (dose: 0.1 mg/kg/injection, schedule: Q01DX015 (ip), vehicle: saline) 101 % of control and 110 % of control; (dose: 0.18 mg/kg/injection, schedule: Q01DX015 (ip), vehicle: saline) 106 % of control. Further, the T/C is 122 % of control (dose: 0.2 mg/kg/injection, schedule: Q01DX010 (ip), vehicle: saline); 106 % of control (dose: 0.2 mg/kg/injection, schedule: Q01DX015 (ip), vehicle: saline); 99 % of control (dose: 0.3 mg/kg/injection, schedule: Q01DX015 (ip), vehicle: saline); 121 % of control (dose: 0.37 mg/kg/injection, schedule: Q01DX015 (ip), vehicle: saline); 103 % of control and 113 % of control (dose: 0.4 mg/kg/injection, schedule: Q01DX015 (ip), vehicle: saline).

With `COc1cc2c(cc1OC)C(C#N)C2` (stereo unspecified), the T/C by setting is: under setting [6], 100 % of control; under setting [4], 100 % of control; under setting [5], 94 % of control.
